Source: US20240285497A1, “METHOD FOR EVALUATING AN ABILITY OF A TEST SAMPLE TO TRIGGER A FOREIGN BODY REACTION IN THE SKIN, A METHOD FOR SCREENING A SUBSTANCE HAVING AN ABILITY TO INHIBIT A FOREIGN BODY REACTION IN THE SKIN, AND AN AGENT FOR INHIBITING A FOREIGN BODY REACTION IN THE SKIN” (priority 2021, published 2024)

Tests used:
[1] = system: xenobiotic responsive element (XRE); experiment: Evaluation of ability to trigger a foreign body reaction using XRE-NLuc::HaCaT reporter cells (NLuc luminescence per viable cell); assay type: cell-based, human
Description: First, XRE-NLuc::HaCaT cells were suspended in a DMEM medium at the density of 1×10^5 cell/mL, and 100 μL of the thus obtained suspension was added to each well of white 96 well plates (Thermo Fisher Scientific, MA, U.S.A.; Catalogue No.: 136102) so that the number of the cells in each well was 10,000 cells/well. In accordance with a conventional method, the cells were incubated at 37° C., 5% CO2 for 24 hours. Thereafter, the DMEM medium was removed, and 100 μL of a new DMEM medium containing FICZ (6-Formylindolo[3,2-b]carbazole; CAS RN: 172922-91-7) as a test sample at a predetermined concentration was added, followed by further incubation for 24 hours at 37° C., 5% CO2. FICZ is known as a substance that triggers a foreign body reaction in which XRE is involved. Meanwhile, negative controls were prepared by adding 100 μL of a DMEM medium containing no FICZ instead of the DMEM medium containing FICZ, which were also incubated for 24 hours at 37° C., 5% CO2.
After the above-described incubation for 24 hours, the number of cells in each well was counted by a colorimetric method based on the degradation of tetrazolium salt (WST-1) by mitochondrial dehydrogenase in viable cells. Specifically, 3 μL of Premix WST-1 (Product Name “Premix WST-1 Cell Proliferation Assay System”; Takara Bio Inc., Shiga, Japan; Catalogue No.: MK400) was added to each well of 96 well plates, and then the cells were cultured for 1 hour at 37° C., 5% CO2. Thereafter, 93 μL of cell culture supernatant was removed from each well to measure the absorbance of the supernatant in each well. The removed supernatants were transferred to transparent 96 well plates, and then the absorbance at 450 nm (A450) and, as a reference wavelength, the absorbance at 670 nm (A670) were measured using iMark microplate reader (Bio-Rad; Catalogue No.: 168-1130JA). A value (A450-A670) was obtained by subtracting the absorbance at 670 nm (A670) from the absorbance at 450 nm (A450). The relative viable cell count (%) was expressed as a relative value with the value (A450-A670) obtained for the negative control as 100%.
Meanwhile, the expression level of the reporter protein was measured using samples left on the white 96-well plates after removing the supernatants for the viable cell count measurement. Briefly, 7 μL of Nano-Glo Luciferase Assay System (Promega; Catalogue No.: N110) was added to each well of the white 96-well plate. After 3 mins, the luminescence intensity obtained from the reporter protein produced by XRE-NLuc::HaCaT cells in each well was measured using GloMax Navigator Microplate Luminometer (Promega; Catalogue No.: GM2000). The obtained luminescence intensities were divided by the relative viable cell counts obtained by the above-described colorimetric method to obtain the expression level of the reporter protein (luminescence intensity) per unit number of viable cells.
In FIG. 3, the luminescence intensity per unit number of viable cells obtained from XRE-NLuc::HaCaT cells incubated with each of the DMEM medium containing FICZ at different concentrations was shown as a relative value, with the luminescence intensity per unit number of viable cells obtained for the negative control set to 1. […] In the figure, “*” and “**” indicate statistically significant differences (p<0.05 and p<0.01, respectively) from the negative control (“FICZ Concentration 0 nM” in FIG. 3).
The ability of each test sample to trigger a foreign body reaction was evaluated using XRE-NLuc::HaCaT cells in the same manner as in Experiment 1-2, except that I3C (Indole-3-carbinol, CAS RN: 700-06-1), ITE (2-(1′H-indole-3′-carbonyl)-thiazole-4-carboxylic acid methyl ester, CAS RN: 448906-42-1), and Indirubin (CAS RN: 479-41-4) were used instead of FICZ as test samples and the amount of each test sample added to the DMEM medium was appropriately changed.

[2] = system: matrix metalloprotease 2 (MMP2) mRNA; experiment: MMP2 mRNA expression in HaCaT cells contacted with test substance, quantitative PCR; assay type: cell-based, human; details: 1 μM, 10 μM and 100 μM, HaCaT cells, 24 hours
Description: In this experiment, the effect of Fraglide-1 on the expression of MMP9 in the level of mRNA was examined first. Specifically, HaCaT cells were treated with Fraglide-1 in the same manner as described in Experiment 3-1 except that HaCaT cells were incubated for 24 hours in the medium containing 0 μM, 1 μM, 10 μM, and 100 μM of Fraglide-1 instead of being incubated for 24 hours in the medium containing both FICZ and Fraglide-1. The total RNA was then extracted, cDNA was prepared, and the quantitative PCR was performed using the obtained cDNA. Herein, the procedure of the quantitative PCR was the same as described in Experiment 3-1 except that the primers shown in below Table 4 were used. In this experiment, the expression of MMP2 mRNA was also quantified in addition to MMP9 mRNA. MMP2 is known as a MMP which is not transcriptionally regulated by a xenobiotic responsive element (XRE). […]
Next, experiments were performed to inhibit MMP9 and MMP2 in HaCaT cells using retinoic acid (CAS RN: 302-79-4) and nicotinamide (CAS RN: 98-92-0), which are known to be substances having anti-wrinkle effect. […] Then, the total RNA was extracted, cDNA was prepared, and the quantitative PCR was carried out using the obtained cDNA. […]

6-formylindolo[3,2-b] carbazole [FICZ]
luminescence intensity (reporter protein expression) per unit number of viable cells relative to negative control ([1]; 4 nM FICZ, 24 hours, XRE-NLuc::HaCaT cells): about three times higher
luminescence intensity from XRE-NLuc::HaCaT cells, dependence on concentration ([1]; FICZ at different concentrations, 24 hours): increased along with the concentration of FICZ
EC50 ([1]; XRE-NLuc::HaCaT cells, reporter protein expression): 0.012 µM
Present Experiment Maximum Effective concentration Max. Induction ([1]; XRE-NLuc::HaCaT cells, concentration at which reporter expression was maximized): 0.5 µM

O=C1C=C(c2ccccc2)C(O)O1 (centres unmarked) [Fraglide-1, 5-hydroxy-4-phenyl-2(5H)butenolide]
MMP2 mRNA expression [2]: no decrease in the mRNA expression was observed
